The assay deals with influenza virus [インフルエンザウイルス]. The assay can be described thus: microbe, parasite or virus in culture. It counts as cell-based. The settings on record: unidentified influenza virus, 72 h, read-out: 50% influenza-infected cell death inhibition concentration (EC50).

As to `O=C1c2c(O)c(=O)cnn2N(C2c3ccccc3SCc3c2ccc(F)c3F)C2COCCN12` (single isomer, unassigned) [化合物I−1], the EC50 is 18.2 nM.
`CCN1CN(C2c3ccccc3CCc3ccccc32)n2ncc(=O)c(O)c2C1=O` [化合物I−2]: the EC50 is 207 nM.

(Values after patent JP2019059697A, “置換された多環性ピリダジン誘導体およびそのプロドラッグ” (priority 2017, dated 2019).)
